Measured values from ChEMBL document CHEMBL4610055, “Discovery and optimization of novel pyridines as highly potent and selective glycogen synthase kinase 3 inhibitors” (Bioorg Med Chem Lett, 2020).

What was measured:
[1] = Inhibition of GSK3 (unknown origin) using CREB peptide as substrate; set-up: species or system Homo sapiens
[2] = Inhibition of GSK3 in CHO cells expressing insulin receptor assessed as activation of glycogen synthase measured after 30 mins in presence of glucose-6-phosphate by filter paper assay; format: cell-based; settings: Cricetulus griseus, 0.5 h
[3] = Activity in CHO cells expressing insulin receptor assessed as activation of glycogen synthase
[4] = molecular target: Glycogen synthase kinase-3 alpha (Homo sapiens) (UniProt P49840); assay: Inhibition of wild-type human full length GSK3A (M1 to S483 residues) expressed in bacterial expression system at 10 uM by Kinomescan method relative to control
Sequence of Glycogen synthase kinase-3 alpha (Homo sapiens) (P49840 2-483 limits assumed): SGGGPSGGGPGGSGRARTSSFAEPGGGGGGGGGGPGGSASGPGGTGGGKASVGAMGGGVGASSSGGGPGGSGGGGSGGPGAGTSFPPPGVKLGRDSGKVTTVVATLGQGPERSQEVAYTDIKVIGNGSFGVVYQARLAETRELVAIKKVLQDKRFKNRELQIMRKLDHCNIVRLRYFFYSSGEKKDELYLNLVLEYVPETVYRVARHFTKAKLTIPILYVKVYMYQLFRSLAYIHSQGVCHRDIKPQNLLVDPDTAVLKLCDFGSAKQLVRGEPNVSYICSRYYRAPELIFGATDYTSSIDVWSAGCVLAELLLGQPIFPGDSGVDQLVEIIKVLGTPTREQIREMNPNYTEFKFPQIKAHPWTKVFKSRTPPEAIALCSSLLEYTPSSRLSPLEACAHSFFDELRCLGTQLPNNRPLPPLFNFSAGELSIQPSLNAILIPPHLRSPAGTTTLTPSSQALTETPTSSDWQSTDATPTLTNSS

[5] = molecular target: Glycogen synthase kinase-3 beta (Homo sapiens) (UniProt P49841); assay: Inhibition of wild-type human full length GSK3B (M1 to T433 residues) expressed in mammalian expression system at 10 uM by Kinomescan method relative to control
Sequence of Glycogen synthase kinase-3 beta (Homo sapiens) (P49841 whole entry, looked up, the tested form may be a part): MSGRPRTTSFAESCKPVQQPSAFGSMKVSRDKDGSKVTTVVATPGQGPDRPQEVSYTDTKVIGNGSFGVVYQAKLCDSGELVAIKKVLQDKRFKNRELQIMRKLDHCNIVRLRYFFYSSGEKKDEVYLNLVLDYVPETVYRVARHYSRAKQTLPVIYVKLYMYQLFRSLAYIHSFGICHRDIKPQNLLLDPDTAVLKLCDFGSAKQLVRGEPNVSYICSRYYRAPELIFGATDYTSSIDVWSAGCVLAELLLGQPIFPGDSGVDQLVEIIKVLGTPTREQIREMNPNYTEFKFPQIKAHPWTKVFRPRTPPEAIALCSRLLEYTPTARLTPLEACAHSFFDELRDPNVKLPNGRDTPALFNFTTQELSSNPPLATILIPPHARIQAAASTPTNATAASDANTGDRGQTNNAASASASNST

[6] = molecular target: Mitogen-activated protein kinase 8 (Homo sapiens) (UniProt P45983); assay: Inhibition of wild-type human full length JNK1 (M1 to Q384 residues) expressed in mammalian expression system at 10 uM by Kinomescan method relative to control
Sequence of Mitogen-activated protein kinase 8 (Homo sapiens) (P45983 whole entry, the tested form may be a part): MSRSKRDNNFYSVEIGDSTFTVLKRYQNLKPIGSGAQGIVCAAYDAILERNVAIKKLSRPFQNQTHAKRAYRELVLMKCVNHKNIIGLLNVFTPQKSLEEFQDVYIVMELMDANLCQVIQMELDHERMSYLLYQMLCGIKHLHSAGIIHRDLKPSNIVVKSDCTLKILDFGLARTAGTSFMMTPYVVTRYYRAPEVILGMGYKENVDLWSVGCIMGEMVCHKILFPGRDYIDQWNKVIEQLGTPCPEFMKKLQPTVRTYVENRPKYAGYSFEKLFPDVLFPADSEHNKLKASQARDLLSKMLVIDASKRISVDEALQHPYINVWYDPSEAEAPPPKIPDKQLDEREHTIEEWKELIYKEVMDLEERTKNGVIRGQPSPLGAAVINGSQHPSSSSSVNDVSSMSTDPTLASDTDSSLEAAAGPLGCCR

[7] = molecular target: Mitogen-activated protein kinase 9 (Homo sapiens) (UniProt P45984); assay: Inhibition of wild-type human full length JNK2 (M1 to Q382 residues) expressed in mammalian expression system at 10 uM by Kinomescan method relative to control
Sequence of Mitogen-activated protein kinase 9 (Homo sapiens) (P45984 whole entry, looked up, the tested form may be a part): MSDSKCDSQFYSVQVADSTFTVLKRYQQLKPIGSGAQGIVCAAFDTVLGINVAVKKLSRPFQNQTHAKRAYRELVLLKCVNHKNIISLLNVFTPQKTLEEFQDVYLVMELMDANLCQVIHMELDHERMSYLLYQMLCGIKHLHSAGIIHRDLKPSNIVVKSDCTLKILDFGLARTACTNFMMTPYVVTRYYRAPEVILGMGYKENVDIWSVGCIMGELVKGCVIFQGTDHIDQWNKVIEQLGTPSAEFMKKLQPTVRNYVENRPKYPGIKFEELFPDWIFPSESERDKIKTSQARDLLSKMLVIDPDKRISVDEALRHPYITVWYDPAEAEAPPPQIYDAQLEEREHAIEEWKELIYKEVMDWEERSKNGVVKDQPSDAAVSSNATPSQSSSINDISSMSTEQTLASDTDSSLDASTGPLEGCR

[8] = molecular target: Mitogen-activated protein kinase 10 (Homo sapiens) (UniProt P53779); assay: Inhibition of wild-type human partial length JNK3 (V28 to Q422 residues) expressed in mammalian expression system at 10 uM by Kinomescan method relative to control
Sequence of Mitogen-activated protein kinase 10 (Homo sapiens) (P53779 whole entry, the tested form may be a part): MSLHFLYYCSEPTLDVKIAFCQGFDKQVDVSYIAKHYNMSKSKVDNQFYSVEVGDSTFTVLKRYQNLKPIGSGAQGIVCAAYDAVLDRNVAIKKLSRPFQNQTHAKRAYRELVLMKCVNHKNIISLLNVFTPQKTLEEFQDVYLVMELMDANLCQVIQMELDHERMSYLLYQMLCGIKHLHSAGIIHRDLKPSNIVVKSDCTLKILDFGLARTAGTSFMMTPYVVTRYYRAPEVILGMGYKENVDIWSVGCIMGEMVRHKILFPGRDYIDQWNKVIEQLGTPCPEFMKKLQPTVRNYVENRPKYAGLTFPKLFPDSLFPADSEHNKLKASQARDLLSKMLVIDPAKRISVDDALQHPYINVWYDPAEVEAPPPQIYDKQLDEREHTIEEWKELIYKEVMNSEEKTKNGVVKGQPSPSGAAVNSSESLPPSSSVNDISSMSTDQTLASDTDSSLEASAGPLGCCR

[9] = molecular target: Serine/threonine-protein kinase B-raf (Homo sapiens) (UniProt P15056); assay: Inhibition of wild-type human partial length BRAF (S429 to E741 residues) expressed in mammalian expression system at 10 uM by Kinomescan method relative to control
Sequence of Serine/threonine-protein kinase B-raf (Homo sapiens) (P15056 whole entry, the tested form may be a part): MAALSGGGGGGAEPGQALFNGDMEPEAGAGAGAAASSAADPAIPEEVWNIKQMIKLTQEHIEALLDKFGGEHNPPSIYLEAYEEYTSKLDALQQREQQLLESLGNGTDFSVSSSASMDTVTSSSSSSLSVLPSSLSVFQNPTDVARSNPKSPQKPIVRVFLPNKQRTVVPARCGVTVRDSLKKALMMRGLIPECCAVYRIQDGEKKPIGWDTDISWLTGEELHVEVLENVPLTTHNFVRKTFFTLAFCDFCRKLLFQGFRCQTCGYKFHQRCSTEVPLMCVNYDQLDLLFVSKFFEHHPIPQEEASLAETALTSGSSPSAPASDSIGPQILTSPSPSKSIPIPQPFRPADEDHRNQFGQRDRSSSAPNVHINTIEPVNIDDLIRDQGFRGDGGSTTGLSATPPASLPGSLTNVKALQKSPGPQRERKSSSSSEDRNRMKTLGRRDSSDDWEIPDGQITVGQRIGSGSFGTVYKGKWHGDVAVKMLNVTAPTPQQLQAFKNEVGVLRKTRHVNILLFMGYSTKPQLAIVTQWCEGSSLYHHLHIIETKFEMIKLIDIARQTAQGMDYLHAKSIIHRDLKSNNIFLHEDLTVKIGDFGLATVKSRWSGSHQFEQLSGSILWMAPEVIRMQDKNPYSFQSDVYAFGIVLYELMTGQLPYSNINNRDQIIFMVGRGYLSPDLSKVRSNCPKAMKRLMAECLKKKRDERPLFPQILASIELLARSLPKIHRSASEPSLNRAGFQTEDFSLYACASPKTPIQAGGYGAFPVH

[10] = Half life in ZDF rat; format: ADME; settings: in vivo
[11] = Half life in Beagle dog; format: ADME, Canis lupus familiaris; settings: in vivo
[12] = Oral bioavailability in ZDF rat; format: ADME, organism-based; settings: in vivo
[13] = tested on: Rattus norvegicus; assay: Antidiabetic activity in ZDF rat administered as single dose via oral gavage by OGTT; format: functional

SMILES	IC50 [1] [nM]	EC50 [2] [nM]	other results
C[C@H](CNc1ccc(N2CCN(C)CC2=O)c(-c2ccc(Cl)cc2Cl)n1)Nc1ccc([N+](=O)[O-])c(N)n1	1010		
CN1CCN(c2ccc(NCCNc3ccc([N+](=O)[O-])c(N)n3)nc2-c2ccccc2C(F)(F)F)C(=O)C1	57	760	
CN1CCN(c2ccc(NCCNc3ccc([N+](=O)[O-])c(N)n3)nc2-c2cccc(Cl)c2)C(=O)C1	74	3000	
CN1CCN(c2ccc(NCCNc3ccc([N+](=O)[O-])c(N)n3)nc2-c2ccoc2)C(=O)C1	3700		
CCc1ccc(-c2nc(NCCNc3ccc([N+](=O)[O-])c(N)n3)ccc2N2CCN(C)CC2=O)cc1	52	290	
CN1CCN(c2ccc(NCCNc3ccc([N+](=O)[O-])c(N)n3)nc2-c2ccc(F)cc2F)C(=O)C1	69	1080	
C[C@@H](CNc1ccc(N2CCN(C)CC2=O)c(-c2ccc(Cl)cc2Cl)n1)Nc1ccc([N+](=O)[O-])c(N)n1	66	1050	
CN1CCN(c2ccc(NCCNc3ccc([N+](=O)[O-])c(N)n3)nc2-c2ccccc2)C(=O)C1	202		
Cc1cnc(-c2cnc(NCCNc3ccc(C#N)cn3)nc2-c2ccc(Cl)cc2Cl)[nH]1 [LADUVIGLUSIB]		770	EC50 [3]: 770 nM
C[C@H](CNc1ccc([N+](=O)[O-])c(N)n1)Nc1ccc(N2CCN(C)CC2=O)c(-c2ccc(Cl)cc2Cl)n1	207		
CN1CCN(c2ccc(NCCNc3ccc([N+](=O)[O-])c(N)n3)nc2-c2ccc(Cl)cc2)C(=O)C1	44	760	

Further lines, with some results ahead:

IC50 [1] [nM]	EC50 [2] [nM]	SMILES	other results
12	1600	Nc1nc(NCCNc2ccc(NC(=O)CNCCO)c(-c3ccc(Cl)cc3Cl)n2)ccc1[N+](=O)[O-]	
13	1400	CC(=O)N1CCN(c2ccc(NCCNc3ccc([N+](=O)[O-])c(N)n3)nc2-c2ccc(Cl)cc2Cl)C(=O)C1	
11	140	Nc1nc(NCCNc2ccc(N3CCNCC3=O)c(-c3ccc(Cl)cc3Cl)n2)ccc1[N+](=O)[O-]	
36	310	C[C@@H](CNc1ccc([N+](=O)[O-])c(N)n1)Nc1ccc(N2CCN(C)CC2=O)c(-c2ccc(Cl)cc2Cl)n1	
11	510	Nc1nc(NCCNc2ccc(N3CCOCC3=O)c(-c3ccc(Cl)cc3Cl)n2)ccc1[N+](=O)[O-]	
18	1800	Nc1nc(NCCNc2ccc(N3CCN(CC(F)(F)F)CC3=O)c(-c3ccc(Cl)cc3Cl)n2)ccc1[N+](=O)[O-]	
29	1350	CN1CCN(c2ccc(NCCNc3ccc([N+](=O)[O-])c(N)n3)nc2-c2ccccc2Cl)C(=O)C1	
13	70	Nc1nc(NCCNc2ccc(N3CCCCC3=O)c(-c3ccc(Cl)cc3Cl)n2)ccc1[N+](=O)[O-]	
5	530	Nc1nc(NCCNc2ccc(N3CCCC3=O)c(-c3ccc(Cl)cc3Cl)n2)ccc1[N+](=O)[O-]	
8	130	CN1CCN(c2ccc(NCCNc3ccc([N+](=O)[O-])c(N)n3)nc2-c2ccc(Cl)cc2Cl)C(=O)C1	inhibition [4]: 99.5%; inhibition [5]: 95.8%; inhibition [6]: 92.2%; inhibition [7]: 97.4%; inhibition [8]: 98.3%; inhibition [9]: 91.8%; half-life [10]: 3.42 h; half-life [11]: 2.72 h; bioavailability [12]: 30%; ED50 [13]: 10 mg/kg
13	40	Nc1nc(NCCNc2ccc(N3CCN(C4CC4)CC3=O)c(-c3ccc(Cl)cc3Cl)n2)ccc1[N+](=O)[O-]	
15	220	CN1CCN(c2ccc(N(C)CCNc3ccc([N+](=O)[O-])c(N)n3)nc2-c2ccc(Cl)cc2Cl)C(=O)C1	
